The experiment deals with MV-4-11 cells. In words: Gene expression microarray analysis (Affymetrix PrimeView) and GSEA. The experiment is classed as cell-based, human. Set-up: RFU PODN (11730768_x_at) / Fold change /veh PODN (11730768_x_at) / RFU LINC00158 (11744669_a_at) / Fold change /veh LINC00158 (11744669_a_at) / RFU DUSP10 (11751237_a_at) / Fold change /veh DUSP10 (11751237_a_at) / RFU ID3 (11757404_x_at) / Fold change /veh ID3 (11757404_x_at) / RFU PLEKHG5 (11737974_s_at) / Fold change /veh PLEKHG5 (11737974_s_at) / RFU LRRC4B (11730491_at) / Fold change /veh LRRC4B (11730491_at) / RFU GIMAP4 (11747438_a_at) / Fold change /veh GIMAP4 (11747438_a_at) / RFU KRT8 (11758183_x_at) / Fold change /veh KRT8 (11758183_x_at) / RFU CNN1 (11734310_a_at) / Fold change /veh CNN1 (11734310_a_at) / RFU VPS37D (11726825_at) / Fold change /veh VPS37D (11726825_at) / RFU C10orf10 (11716522_x_at) / Fold change /veh C10orf10 (11716522_x_at) / RFU KIR2DL2 /// KIR2DL4 /// KIR2DL5A /// KIR2DL5B /// KIR2DS1 /// KIR2DS2 /// KIR2DS3 /// KIR2DS4 /// KIR3DL3 /// KIR3DL3 /// KIR3DS1 (11738374_at) / Fold change /veh KIR2DL2 /// KIR2DL4 /// KIR2DL5A /// KIR2DL5B /// KIR2DS1 /// KIR2DS2 /// KIR2DS3 /// KIR2DS4 /// KIR3DL3 /// KIR3DL3 /// KIR3DS1 (11738374_at) / RFU C1QL1 (11718748_at) / Fold change /veh C1QL1 (11718748_at) / RFU TMPRSS4 (11747572_a_at) / Fold change /veh TMPRSS4 (11747572_a_at) / RFU HAMP (11756126_x_at) / Fold change /veh HAMP (11756126_x_at) / RFU RNFT2 (11725882_a_at) / Fold change /veh RNFT2 (11725882_a_at) / RFU NR4A2 (11747474_a_at) / Fold change /veh NR4A2 (11747474_a_at) / RFU ABCC12 (11746883_a_at) / Fold change /veh ABCC12 (11746883_a_at) / RFU TMEM136 (11760407_x_at) / Fold change /veh TMEM136 (11760407_x_at) / RFU CLDN22 /// WWC2 (11732394_at) / Fold change /veh CLDN22 /// WWC2 (11732394_at) / RFU HLA-DPB1 (11760878_x_at) / Fold change /veh HLA-DPB1 (11760878_x_at) / RFU SPINT1 (11716480_a_at) / Fold change /veh SPINT1 (11716480_a_at) / RFU GAP43 (11754022_s_at) / Fold change /veh GAP43 (11754022_s_at) / RFU A4GNT (11735810_at) / Fold change /veh A4GNT (11735810_at) / RFU PRB3 (11715151_x_at) / Fold change /veh PRB3 (11715151_x_at) / RFU TUBB4B (11761932_at) / Fold change /veh TUBB4B (11761932_at) / RFU CAPN14 (11732068_a_at) / Fold change /veh CAPN14 (11732068_a_at) / RFU TMCC2 (11721928_a_at) / Fold change /veh TMCC2 (11721928_a_at) / RFU IRGQ (11745062_a_at) / Fold change /veh IRGQ (11745062_a_at) / RFU FAM174B (11720279_a_at) / Fold change /veh FAM174B (11720279_a_at) / RFU TMPRSS4 (11748680_a_at) / Fold change /veh TMPRSS4 (11748680_a_at) / RFU FAM212B (11763350_a_at) / Fold change /veh FAM212B (11763350_a_at) / RFU PLEKHG5 (11743358_a_at) / Fold change /veh PLEKHG5 (11743358_a_at) / RFU ZSCAN30 (11745921_a_at) / Fold change /veh ZSCAN30 (11745921_a_at) / RFU CMKLR1 (11741424_a_at) / Fold change /veh CMKLR1 (11741424_a_at) / RFU LOC101060620 /// MAPK8IP1 (11723275_at) / Fold change /veh LOC101060620 /// MAPK8IP1 (11723275_at) / RFU SPTSSB (11747773_x_at) / Fold change /veh SPTSSB (11747773_x_at) / RFU PRSS12 (11739890_at) / Fold change /veh PRSS12 (11739890_at) / RFU BIN1 (11741810_x_at) / Fold change /veh BIN1 (11741810_x_at) / RFU WNT11 (11732464_a_at) / Fold change /veh WNT11 (11732464_a_at) / RFU C10orf10 (11716521_a_at) / Fold change /veh C10orf10 (11716521_a_at) / RFU C5orf56 (11738089_at) / Fold change /veh C5orf56 (11738089_at) / RFU CYB561 (11721691_x_at) / Fold change /veh CYB561 (11721691_x_at) / RFU ANKRD19P (11752326_a_at) / Fold change /veh ANKRD19P (11752326_a_at) / RFU OR2T12 /// OR2T33 /// OR2T8 (11738714_s_at) / Fold change /veh OR2T12 /// OR2T33 /// OR2T8 (11738714_s_at) / RFU VCAN (11748164_a_at) / Fold change /veh VCAN (11748164_a_at) / RFU JSRP1 (11732532_at) / Fold change /veh JSRP1 (11732532_at) / RFU KRTAP10-11 (11738290_x_at) / Fold change /veh KRTAP10-11 (11738290_x_at) / RFU MYO3A (11730013_a_at) / Fold change /veh MYO3A (11730013_a_at) / RFU EBF3 (11725865_a_at) / Fold change /veh EBF3 (11725865_a_at) / RFU CAMK2N1 (11719241_x_at) / Fold change /veh CAMK2N1 (11719241_x_at) / RFU C5orf56 (11738088_a_at) / Fold change /veh C5orf56 (11738088_a_at) / RFU OLFML3 (11715873_a_at) / Fold change /veh OLFML3 (11715873_a_at) / RFU LOC100653217 /// NTM (11731650_a_at) / Fold change /veh LOC100653217 /// NTM (11731650_a_at) / RFU MAPK11 (11762145_a_at) / Fold change /veh MAPK11 (11762145_a_at) / RFU FIZ1 (11724087_x_at) / Fold change /veh FIZ1 (11724087_x_at) / RFU OASL (11726364_x_at) / Fold change /veh OASL (11726364_x_at) / RFU SOX15 (11748057_x_at) / Fold change /veh SOX15 (11748057_x_at) / RFU CD79A (11719716_a_at) / Fold change /veh CD79A (11719716_a_at) / RFU HIST1H1D (11736915_at) / Fold change /veh HIST1H1D (11736915_at) / RFU CASKIN2 (11723855_a_at) / Fold change /veh CASKIN2 (11723855_a_at) / RFU LOC730098 (11760151_x_at) / Fold change /veh LOC730098 (11760151_x_at) / RFU OR4N2 (11742367_at) / Fold change /veh OR4N2 (11742367_at) / RFU PRRT2 (11749266_a_at) / Fold change /veh PRRT2 (11749266_a_at) / RFU SNX32 (11753110_a_at) / Fold change /veh SNX32 (11753110_a_at) / RFU CDHR5 (11726645_a_at) / Fold change /veh CDHR5 (11726645_a_at) / RFU RCAN1 (11760418_a_at) / Fold change /veh RCAN1 (11760418_a_at) / RFU FAM167A (11723789_a_at) / Fold change /veh FAM167A (11723789_a_at) / RFU FAM26E (11764081_at) / Fold change /veh FAM26E (11764081_at) / RFU ISYNA1 (11749810_s_at) / Fold change /veh ISYNA1 (11749810_s_at) / RFU ACY1 (11761880_at) / Fold change /veh ACY1 (11761880_at) / RFU 11764098_at / Fold change /veh 11764098_at / RFU SAMD14 (11745864_x_at) / Fold change /veh SAMD14 (11745864_x_at) / RFU NPB (11741838_a_at) / Fold change /veh NPB (11741838_a_at) / RFU TMPRSS6 (11731388_a_at) / Fold change /veh TMPRSS6 (11731388_a_at) / RFU KRTAP10-2 (11738614_at) / Fold change /veh KRTAP10-2 (11738614_at) / RFU ARHGAP8 /// PRR5-ARHGAP8 (11727945_x_at) / Fold change /veh ARHGAP8 /// PRR5-ARHGAP8 (11727945_x_at) / RFU KRTAP5-7 /// NADSYN1 (11734609_at) / Fold change /veh KRTAP5-7 /// NADSYN1 (11734609_at) / RFU RASL12 (11751679_a_at) / Fold change /veh RASL12 (11751679_a_at) / RFU CDKN2B (11736163_a_at) / Fold change /veh CDKN2B (11736163_a_at) / RFU PRF1 (11729649_at) / Fold change /veh PRF1 (11729649_at) / RFU, ZNF638 /// ZNF638-IT1 / Fold change vs veh, ZNF638 /// ZNF638-IT1 / RFU, PANK3 / Fold change vs veh, PANK3 / RFU, SH3YL1 / Fold change vs veh, SH3YL1 / RFU, ZEB2 / Fold change vs veh, ZEB2 / RFU, NRIP1 / Fold change vs veh, NRIP1 / RFU, PTTG1IP / Fold change vs veh, PTTG1IP / RFU, CAPN2 / Fold change vs veh, CAPN2 / RFU, MED14 / Fold change vs veh, MED14 / RFU, SNORA58 / Fold change vs veh, SNORA58 / RFU, C1orf63 / Fold change vs veh, C1orf63 / RFU, LRRFIP1 / Fold change vs veh, LRRFIP1 / RFU, NDUFAF7 / Fold change vs veh, NDUFAF7 / RFU, SLC12A2 / Fold change vs veh, SLC12A2 / RFU, IBTK / Fold change vs veh, IBTK / RFU, ESF1 / Fold change vs veh, ESF1 / Fold change vs veh, TMEM50B / RFU, TAOK1 / Fold change vs veh, TAOK1 / RFU, ACBD3 / Fold change vs veh, ACBD3 / RFU, TMA16 / Fold change vs veh, TMA16 / RFU, RWDD3 / Fold change vs veh, RWDD3 / RFU, BCAT1 / Fold change vs veh, BCAT1 / RFU, EDEM3 / Fold change vs veh, EDEM3 / RFU, TMEM33 / Fold change vs veh, TMEM33 / RFU, WDR75 / Fold change vs veh, WDR75 / RFU, AHCTF1 / Fold change vs veh, AHCTF1 / RFU, TFRC / Fold change vs veh, TFRC / RFU, ZDHHC17 / Fold change vs veh, ZDHHC17 / RFU, NOM1 / Fold change vs veh, NOM1 / RFU, ARL8B / Fold change vs veh, ARL8B / RFU, ZBTB11 / Fold change vs veh, ZBTB11 / RFU, TAMM41 / Fold change vs veh, TAMM41 / RFU, KIAA1704 /// LOC100996395 / Fold change vs veh, KIAA1704 /// LOC100996395 / RFU, ING1 / Fold change vs veh, ING1 / RFU, TRMT61B / Fold change vs veh, TRMT61B / RFU, FUBP3 / Fold change vs veh, FUBP3 / RFU, TP53 / Fold change vs veh, TP53 / RFU, TNKS2 / Fold change vs veh, TNKS2 / RFU, ZFP14 / Fold change vs veh, ZFP14 / RFU, ACTR2 / Fold change vs veh, ACTR2 / RFU, PPP3R1 / Fold change vs veh, PPP3R1 / RFU, PIK3R1 / Fold change vs veh, PIK3R1 / RFU, HNRNPA1 / Fold change vs veh, HNRNPA1 / RFU, RNF170 / Fold change vs veh, RNF170 / RFU, ZNF28 / Fold change vs veh, ZNF28 / RFU, RNGTT / Fold change vs veh, RNGTT / RFU, OGT / Fold change vs veh, OGT / RFU, BRD1 / Fold change vs veh, BRD1 / RFU, MARS / Fold change vs veh, MARS / RFU, ZNF655 / Fold change vs veh, ZNF655 / RFU, FAHD1 / Fold change vs veh, FAHD1 / RFU, BDP1 / Fold change vs veh, BDP1 / RFU, LRRCC1 / Fold change vs veh, LRRCC1 / RFU, ARID1A / Fold change vs veh, ARID1A / RFU, ZNF146 / Fold change vs veh, ZNF146 / RFU, ZNF330 / Fold change vs veh, ZNF330 / RFU, GPN3 / Fold change vs veh, GPN3 / RFU, C9orf123 / Fold change vs veh, C9orf123 / RFU, N4BP2L2 / Fold change vs veh, N4BP2L2 / RFU, ARFIP1 / Fold change vs veh, ARFIP1 / RFU, FAM179B / Fold change vs veh, FAM179B / RFU, BCL10 / Fold change vs veh, BCL10 / RFU, UHRF1BP1L / Fold change vs veh, UHRF1BP1L / RFU, BET1 / Fold change vs veh, BET1 / RFU, CNOT2 / Fold change vs veh, CNOT2 / RFU, ZNF268 / Fold change vs veh, ZNF268 / Fold change vs veh, ZNF507 / RFU, DGCR2 / Fold change vs veh, DGCR2 / RFU, WDSUB1 / Fold change vs veh, WDSUB1 / Fold change vs veh, HSP90B1 /// MIR3652 / RFU, ADSS / Fold change vs veh, ADSS / RFU, GK / Fold change vs veh, GK / RFU, ZNF148 / Fold change vs veh, ZNF148 / RFU, TAF9 / Fold change vs veh, TAF9 / RFU, SLC1A5 / Fold change vs veh, SLC1A5 / RFU, SLMO2 / Fold change vs veh, SLMO2 / RFU, ABCC4 / Fold change vs veh, ABCC4 / RFU, LOC101060439 /// RAP1B / Fold change vs veh, LOC101060439 /// RAP1B / RFU, RFX7 / Fold change vs veh, RFX7 / RFU, GTPBP10 / Fold change vs veh, GTPBP10 / RFU, CNEP1R1 / Fold change vs veh, CNEP1R1 / RFU, BIVM-ERCC5 /// ERCC5 / Fold change vs veh, BIVM-ERCC5 /// ERCC5 / RFU, ILF3 / Fold change vs veh, ILF3 / RFU 11762660_at / Fold change /veh 11762660_at / RFU VCAN (11757783_s_at) / Fold change /veh VCAN (11757783_s_at) / RFU DDX43 (11728927_at) / Fold change /veh DDX43 (11728927_at) / RFU KRT8 (11758188_x_at) / Fold change /veh KRT8 (11758188_x_at) / RFU NKD1 (11759106_at) / Fold change /veh NKD1 (11759106_at) / RFU SRD5A1 (11742802_a_at) / Fold change /veh SRD5A1 (11742802_a_at) / RFU TPSAB1 /// TPSB2 (11721975_s_at) / Fold change /veh TPSAB1 /// TPSB2 (11721975_s_at) / RFU GSTM3 (11746129_a_at) / Fold change /veh GSTM3 (11746129_a_at) / RFU IL23R (11737362_x_at) / Fold change /veh IL23R (11737362_x_at) / RFU TMEM51 (11727254_a_at) / Fold change /veh TMEM51 (11727254_a_at) / RFU PIWIL2 (11732686_x_at) / Fold change /veh PIWIL2 (11732686_x_at) / RFU ORM1 (11744905_x_at) / Fold change /veh ORM1 (11744905_x_at) / RFU CCDC152 (11743942_at) / Fold change /veh CCDC152 (11743942_at) / RFU ECM1 (11717891_a_at) / Fold change /veh ECM1 (11717891_a_at) / RFU IL23R (11748794_a_at) / Fold change /veh IL23R (11748794_a_at) / RFU TNFAIP8L3 (11732012_x_at) / Fold change /veh TNFAIP8L3 (11732012_x_at) / RFU MBOAT4 (11741988_at) / Fold change /veh MBOAT4 (11741988_at) / RFU 11764193_at / Fold change /veh 11764193_at / RFU TMEM53 (11763286_at) / Fold change /veh TMEM53 (11763286_at) / RFU MAGEB2 (11727129_at) / Fold change /veh MAGEB2 (11727129_at) / RFU TMEM200A (11744735_a_at) / Fold change /veh TMEM200A (11744735_a_at) / RFU CCDC152 (11751479_a_at) / Fold change /veh CCDC152 (11751479_a_at) / RFU FAM211A (11726209_a_at) / Fold change /veh FAM211A (11726209_a_at) / RFU RGS16 (11746705_a_at) / Fold change /veh RGS16 (11746705_a_at) / RFU VCAN (11755009_s_at) / Fold change /veh VCAN (11755009_s_at) / RFU RHOB (11743442_s_at) / Fold change /veh RHOB (11743442_s_at) / RFU RGS16 (11720943_a_at) / Fold change /veh RGS16 (11720943_a_at) / RFU RGS16 (11720944_at) / Fold change /veh RGS16 (11720944_at) / RFU, VPS4B / Fold change vs veh, VPS4B / RFU, CREB1 / Fold change vs veh, CREB1 / RFU, DNAJC13 / Fold change vs veh, DNAJC13 / RFU, GNAQ / Fold change vs veh, GNAQ / RFU, CDK5R1 / Fold change vs veh, CDK5R1 / RFU, ZRANB3 / Fold change vs veh, ZRANB3 / RFU, CUL4A / Fold change vs veh, CUL4A / RFU, CCNY / Fold change vs veh, CCNY / RFU, UFL1 / Fold change vs veh, UFL1 / RFU, COG3 / Fold change vs veh, COG3 / RFU, DIAPH2 / Fold change vs veh, DIAPH2 / RFU, SKA2 / Fold change vs veh, SKA2 / RFU, AFF3 / Fold change vs veh, AFF3 / RFU, LMF1 / Fold change vs veh, LMF1 / RFU, IPO11 / Fold change vs veh, IPO11 / RFU, DFFB / Fold change vs veh, DFFB / RFU, FOXP1 / Fold change vs veh, FOXP1 / RFU, CARD8 / Fold change vs veh, CARD8 / RFU, STRN3 / Fold change vs veh, STRN3 / RFU, ADK / Fold change vs veh, ADK / RFU, RASSF2 / Fold change vs veh, RASSF2 / RFU, WIPF1 / Fold change vs veh, WIPF1 / RFU, LARP1B / Fold change vs veh, LARP1B / RFU, RASA1 / Fold change vs veh, RASA1 / RFU, RB1 / Fold change vs veh, RB1 / RFU, PPFIA1 / Fold change vs veh, PPFIA1 / RFU, MAT2A / Fold change vs veh, MAT2A / RFU, CCT5 / Fold change vs veh, CCT5 / RFU, WDR92 / Fold change vs veh, WDR92 / RFU, CUX1 / Fold change vs veh, CUX1 / RFU, TTC7A / Fold change vs veh, TTC7A / RFU, TMEM135 / Fold change vs veh, TMEM135 / RFU, DEPTOR / Fold change vs veh, DEPTOR / RFU, CPM / Fold change vs veh, CPM / RFU, DNAJB6 / Fold change vs veh, DNAJB6 / RFU, CACNA2D3 / Fold change vs veh, CACNA2D3 / RFU, DTX4 / Fold change vs veh, DTX4 / RFU, TFCP2 / Fold change vs veh, TFCP2 / RFU, GMCL1 /// GMCL1P1 / Fold change vs veh, GMCL1 /// GMCL1P1 / RFU, AEBP2 / Fold change vs veh, AEBP2 / RFU, SNHG1 /// SNORD22 /// SNORD25 /// SNORD26 /// SNORD27 /// SNORD28 /// SNORD29 /// SNORD31 / Fold change vs veh, SNHG1 /// SNORD22 /// SNORD25 /// SNORD26 /// SNORD27 /// SNORD28 /// SNORD29 /// SNORD31 / Fold change (Aza/veh), C12orf56 (ProbeSet 11735607_a_at) / Fold change (ACY-1035/veh), C12orf56 (ProbeSet 11735607_a_at) / Fold change (Aza/veh), FGFR1OP (ProbeSet 11751329_s_at) / Fold change (ACY-1035/veh), FGFR1OP (ProbeSet 11751329_s_at) / Fold change (Aza/veh), VPS36 (ProbeSet 11739960_a_at) / Fold change (ACY-1035/veh), VPS36 (ProbeSet 11739960_a_at) / RFU SYPL1 (11715823_x_at) / Fold change /veh SYPL1 (11715823_x_at) / RFU IGFBP7 (11715501_s_at) / Fold change /veh IGFBP7 (11715501_s_at) / RFU REEP3 (11722064_at) / Fold change /veh REEP3 (11722064_at) / RFU IGLL1 (11728026_x_at) / Fold change /veh IGLL1 (11728026_x_at): dose or concentration left out as unconfirmed. The conditions noted are these: MV-4-11 cells, 48 hours.

Regarding `Nc1ncn([C@@H]2O[C@H](CO)[C@@H](O)[C@H]2O)c(=O)n1` [azacitidine], the “Fold change /veh PRF1 (11729649_at)” value is given as 1.08.
